Assay results: ChEMBL document CHEMBL1201862, “PubChem BioAssay data set” (2004)
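Step 1: Grow cells in 96-well plates. Step 2: Expose to compound for 48 hours at 5 concentrations. Step 3: Interpolate endpoints linearly; if unreached, use highest concentration. At the GI50, growth is halved.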 The source made the active and inactive calls. Cut-off read from the data, not from the text of the source: active = GI50 up to about 1.1 µM and inactive = higher.

Legend:
Assay in all cases: NCI tumour cell line growth inhibition, 48 h
[1] = test system: LXFL 529
[2] = test system: DMS-273
[3] = test system: DMS-114
[4] = test system: XF498
[5] = test system: KM-20L2
[6] = test system: SNB-78
[7] = test system: M19-MEL
[8] = test system: RXF 631
[9] = test system: HOP-18

SMILES | GI50 [1] | GI50 [2] | GI50 [3] | GI50 [4] | GI50 [5] | GI50 [6] | GI50 [7] | GI50 [8] | GI50 [9]
CC1(C)CCOC(Sc2ccccc2)C1 (centres undefined) | > 100 µM (inactive) | 28.2 µM (inactive) | 21.3 µM (inactive) | > 100 µM (inactive) | 47.4 µM (inactive) | > 100 µM (inactive) | 30.3 µM (inactive) | – | –
COc1ccc2[nH]c3c(c2c1)[C@H](c1ccccc1)C[C@@H]1C(=O)N(c2ccccc2)C(=O)[C@H]31 | 43.2 µM (inactive) | 47.8 µM (inactive) | 29.1 µM (inactive) | 23 µM (inactive) | 64.9 µM (inactive) | 44.5 µM (inactive) | > 100 µM (inactive) | 45.1 µM (inactive) | 2.54 µM (inactive)
CN(C)/C=N/c1nc2ncn(CCOC(=O)c3ccccc3)c2c(=O)[nH]1 | > 100 µM (inactive) | > 100 µM (inactive) | > 100 µM (inactive) | – | > 100 µM (inactive) | > 100 µM (inactive) | > 100 µM (inactive) | > 100 µM (inactive) | > 100 µM (inactive)
COc1ccc(CCC2c3cc(OC)c(OC)cc3CCN2C)cc1OC (centres undefined) | > 100 µM (inactive) | – | > 100 µM (inactive) | – | > 100 µM (inactive) | > 100 µM (inactive) | > 100 µM (inactive) | – | > 100 µM (inactive)
CC(/C(=N\Nc1ccccc1)c1ccc(O)cc1)C1C(=O)Oc2ccccc21 (centres undefined) | > 100 µM (inactive) | > 100 µM (inactive) | > 100 µM (inactive) | – | > 100 µM (inactive) | – | > 100 µM (inactive) | – | –
N#CC(C#N)=c1[nH]c2cccc3c2-c2c(cccc2c3=C(C#N)C#N)[nH]1 | > 100 µM (inactive) | > 100 µM (inactive) | > 100 µM (inactive) | > 100 µM (inactive) | > 100 µM (inactive) | 57.4 µM (inactive) | – | – | > 100 µM (inactive)
Cc1ccc(NC(=O)CC2SC(=N)NC2=O)cc1C (centres undefined) | > 100 µM (inactive) | – | – | > 100 µM (inactive) | > 100 µM (inactive) | > 100 µM (inactive) | – | > 100 µM (inactive) | –
Cn1c(=O)nc2n(-c3cccc(F)c3)c3ccccc3nc-2c1=O | 37.8 µM (inactive) | 13.8 µM (inactive) | – | – | 12.3 µM (inactive) | 23.5 µM (inactive) | 2.11 µM (inactive) | – | 34.1 µM (inactive)
Brc1ccc(N2C[N+](c3ccc(Br)cc3)=NC(c3ccccc3)=N2)cc1 | 11.1 µM (inactive) | 8.65 µM (inactive) | 19.5 µM (inactive) | 20.6 µM (inactive) | 18.2 µM (inactive) | 31.2 µM (inactive) | 14.3 µM (inactive) | – | 14.8 µM (inactive)
COC(CN1C(=O)c2cccc3cccc(c23)C1=O)OC | 62.7 µM (inactive) | 48.9 µM (inactive) | 78 µM (inactive) | 23.1 µM (inactive) | > 100 µM (inactive) | > 100 µM (inactive) | > 100 µM (inactive) | – | > 100 µM (inactive)
CC1CC[C@@]23CCC4(C)[C@@](C=CC5[C@@]6(C)CCC(=O)C(C)(C)C6CC[C@]54C)(OC2=O)[C@@H]3[C@H]1C (some centres undefined) | 9.89 µM (inactive) | – | 6.46 µM (inactive) | 15.3 µM (inactive) | 15.4 µM (inactive) | 20 µM (inactive) | 17.9 µM (inactive) | 21.1 µM (inactive) | –
CC1C=C(CCCCCCCCCCCC[C@@H](O)[C@@H]2CC[C@@H]([C@@H]3CC[C@@H](C(O)CCCCCCCCCCCCC4=C[C@H](C)OC4=O)O3)O2)C(=O)O1 (some centres undefined) | 17.1 µM (inactive) | > 41 µM (inactive) | 0.0697 µM (active) | 17.9 µM (inactive) | > 95.5 µM (inactive) | – | 31.2 µM (inactive) | – | > 100 µM (inactive)
CCOC(=O)c1oc2ccc([N+](=O)[O-])c3c2c1CCC3 | > 100 µM (inactive) | 58.3 µM (inactive) | 36.9 µM (inactive) | 20.7 µM (inactive) | > 100 µM (inactive) | 34.8 µM (inactive) | > 100 µM (inactive) | 37.2 µM (inactive) | 6.55 µM (inactive)
CC(=O)NC(C=O)C(O[C@H](C)C(=O)NC(C)C(=O)NC(CCC(N)=O)C(=O)OCc1ccccc1)C(O)C(O)COC(=O)CCNc1c2ccccc2nc2cccc([N+](=O)[O-])c12 (some centres undefined) | 1.79 µM (inactive) | 2.69 µM (inactive) | 2.81 µM (inactive) | 1.83 µM (inactive) | 2 µM (inactive) | 2.58 µM (inactive) | 1.66 µM (inactive) | – | 4.3 µM (inactive)
O=C(c1ccc(Cl)cc1Cl)C1[C@H]2C(=O)N(c3ccc(Cc4ccc(N5C(=O)[C@@H]6ON(c7ccccc7)C(C(=O)c7ccc(Cl)cc7Cl)[C@@H]6C5=O)cc4)cc3)C(=O)[C@H]2ON1c1ccccc1 (some centres undefined) | > 50 µM (inactive) | > 50 µM (inactive) | > 50 µM (inactive) | – | > 50 µM (inactive) | > 50 µM (inactive) | > 50 µM (inactive) | > 50 µM (inactive) | > 50 µM (inactive)
Cc1nnc(N/N=C2/C(=O)Nc3c(Cl)cc(Cl)cc32)n1N | > 100 µM (inactive) | – | – | – | > 100 µM (inactive) | > 100 µM (inactive) | > 100 µM (inactive) | – | 73.1 µM (inactive)
C=C1C(=O)O[C@@H]2C[C@@H](C)[C@@H]3C=CC(=O)[C@@]3(C)[C@@H](OC(=O)CC(=O)O[C@H]3[C@@H]4C(=C)C(=O)O[C@@H]4C[C@@H](C)[C@@H]4C=CC(=O)[C@]43C)[C@H]12 | < 0.0117 µM (active) | 0.0336 µM (active) | 0.0312 µM (active) | 0.0213 µM (active) | 0.0771 µM (active) | 0.0153 µM (active) | 0.0141 µM (active) | 0.0989 µM (active) | 0.11 µM (active)
COc1ccc(C2c3cc(OC)c(OC)cc3C(Cc3ccc([N+](=O)[O-])cc3)C2c2ccc([N+](=O)[O-])cc2)cc1OC (centres undefined) | > 100 µM (inactive) | > 100 µM (inactive) | > 100 µM (inactive) | 48.9 µM (inactive) | > 100 µM (inactive) | > 100 µM (inactive) | > 100 µM (inactive) | > 100 µM (inactive) | –
CN1Cc2c(nc(-c3ccc(Br)cc3)c[n+]2[O-])N(C)C1 | > 100 µM (inactive) | > 100 µM (inactive) | > 100 µM (inactive) | > 100 µM (inactive) | > 100 µM (inactive) | > 100 µM (inactive) | – | – | > 100 µM (inactive)
COc1cccc(/C=C/c2cc(OC)c(OC)c(OC)c2)c1 | 61.7 µM (inactive) | 27.8 µM (inactive) | 24.9 µM (inactive) | 33.7 µM (inactive) | 19.3 µM (inactive) | 21.8 µM (inactive) | 70.1 µM (inactive) | 23.7 µM (inactive) | –
Sc1ncnc2nc[nH]c12 [MERCAPTOPURINE ANHYDROUS] | 653 µM (inactive) | 0.426 µM (active) | 1.67 µM (inactive) | 5.04 µM (inactive) | 1.92 µM (inactive) | 90.4 µM (inactive) | 69 µM (inactive) | – | 192 µM (inactive)
O=C(O)CSc1nnc(COc2ccccc2)n1-c1ccccc1 | > 100 µM (inactive) | > 100 µM (inactive) | > 100 µM (inactive) | – | > 100 µM (inactive) | > 100 µM (inactive) | > 100 µM (inactive) | – | –
CN1C(=O)CC(CC(=O)C2CCCCC2=O)CC1=O (centres undefined) | > 100 µM (inactive) | > 100 µM (inactive) | > 100 µM (inactive) | > 100 µM (inactive) | > 100 µM (inactive) | > 100 µM (inactive) | > 100 µM (inactive) | – | > 100 µM (inactive)
COC(=O)CC1C[C@H](C#N)N(C(=O)c2ccccc2)C[C@@H]1CC[N+](=O)[O-] (some centres undefined) | > 100 µM (inactive) | > 100 µM (inactive) | – | > 100 µM (inactive) | > 100 µM (inactive) | > 100 µM (inactive) | > 100 µM (inactive) | – | > 100 µM (inactive)
